Source: patent US12479847B2 (DANA-FARBER CANCER INSTITUTE, INC., priority 2019, dated 2025)

Target: human LRRK2 kinase (Homo sapiens, UniProt Q5S007)
Details: LRRK2, ADP-Glo, ATP 10 μM, 60 minutes at 25° C.

human LRRK2 kinase, sequence (Q5S007 whole entry): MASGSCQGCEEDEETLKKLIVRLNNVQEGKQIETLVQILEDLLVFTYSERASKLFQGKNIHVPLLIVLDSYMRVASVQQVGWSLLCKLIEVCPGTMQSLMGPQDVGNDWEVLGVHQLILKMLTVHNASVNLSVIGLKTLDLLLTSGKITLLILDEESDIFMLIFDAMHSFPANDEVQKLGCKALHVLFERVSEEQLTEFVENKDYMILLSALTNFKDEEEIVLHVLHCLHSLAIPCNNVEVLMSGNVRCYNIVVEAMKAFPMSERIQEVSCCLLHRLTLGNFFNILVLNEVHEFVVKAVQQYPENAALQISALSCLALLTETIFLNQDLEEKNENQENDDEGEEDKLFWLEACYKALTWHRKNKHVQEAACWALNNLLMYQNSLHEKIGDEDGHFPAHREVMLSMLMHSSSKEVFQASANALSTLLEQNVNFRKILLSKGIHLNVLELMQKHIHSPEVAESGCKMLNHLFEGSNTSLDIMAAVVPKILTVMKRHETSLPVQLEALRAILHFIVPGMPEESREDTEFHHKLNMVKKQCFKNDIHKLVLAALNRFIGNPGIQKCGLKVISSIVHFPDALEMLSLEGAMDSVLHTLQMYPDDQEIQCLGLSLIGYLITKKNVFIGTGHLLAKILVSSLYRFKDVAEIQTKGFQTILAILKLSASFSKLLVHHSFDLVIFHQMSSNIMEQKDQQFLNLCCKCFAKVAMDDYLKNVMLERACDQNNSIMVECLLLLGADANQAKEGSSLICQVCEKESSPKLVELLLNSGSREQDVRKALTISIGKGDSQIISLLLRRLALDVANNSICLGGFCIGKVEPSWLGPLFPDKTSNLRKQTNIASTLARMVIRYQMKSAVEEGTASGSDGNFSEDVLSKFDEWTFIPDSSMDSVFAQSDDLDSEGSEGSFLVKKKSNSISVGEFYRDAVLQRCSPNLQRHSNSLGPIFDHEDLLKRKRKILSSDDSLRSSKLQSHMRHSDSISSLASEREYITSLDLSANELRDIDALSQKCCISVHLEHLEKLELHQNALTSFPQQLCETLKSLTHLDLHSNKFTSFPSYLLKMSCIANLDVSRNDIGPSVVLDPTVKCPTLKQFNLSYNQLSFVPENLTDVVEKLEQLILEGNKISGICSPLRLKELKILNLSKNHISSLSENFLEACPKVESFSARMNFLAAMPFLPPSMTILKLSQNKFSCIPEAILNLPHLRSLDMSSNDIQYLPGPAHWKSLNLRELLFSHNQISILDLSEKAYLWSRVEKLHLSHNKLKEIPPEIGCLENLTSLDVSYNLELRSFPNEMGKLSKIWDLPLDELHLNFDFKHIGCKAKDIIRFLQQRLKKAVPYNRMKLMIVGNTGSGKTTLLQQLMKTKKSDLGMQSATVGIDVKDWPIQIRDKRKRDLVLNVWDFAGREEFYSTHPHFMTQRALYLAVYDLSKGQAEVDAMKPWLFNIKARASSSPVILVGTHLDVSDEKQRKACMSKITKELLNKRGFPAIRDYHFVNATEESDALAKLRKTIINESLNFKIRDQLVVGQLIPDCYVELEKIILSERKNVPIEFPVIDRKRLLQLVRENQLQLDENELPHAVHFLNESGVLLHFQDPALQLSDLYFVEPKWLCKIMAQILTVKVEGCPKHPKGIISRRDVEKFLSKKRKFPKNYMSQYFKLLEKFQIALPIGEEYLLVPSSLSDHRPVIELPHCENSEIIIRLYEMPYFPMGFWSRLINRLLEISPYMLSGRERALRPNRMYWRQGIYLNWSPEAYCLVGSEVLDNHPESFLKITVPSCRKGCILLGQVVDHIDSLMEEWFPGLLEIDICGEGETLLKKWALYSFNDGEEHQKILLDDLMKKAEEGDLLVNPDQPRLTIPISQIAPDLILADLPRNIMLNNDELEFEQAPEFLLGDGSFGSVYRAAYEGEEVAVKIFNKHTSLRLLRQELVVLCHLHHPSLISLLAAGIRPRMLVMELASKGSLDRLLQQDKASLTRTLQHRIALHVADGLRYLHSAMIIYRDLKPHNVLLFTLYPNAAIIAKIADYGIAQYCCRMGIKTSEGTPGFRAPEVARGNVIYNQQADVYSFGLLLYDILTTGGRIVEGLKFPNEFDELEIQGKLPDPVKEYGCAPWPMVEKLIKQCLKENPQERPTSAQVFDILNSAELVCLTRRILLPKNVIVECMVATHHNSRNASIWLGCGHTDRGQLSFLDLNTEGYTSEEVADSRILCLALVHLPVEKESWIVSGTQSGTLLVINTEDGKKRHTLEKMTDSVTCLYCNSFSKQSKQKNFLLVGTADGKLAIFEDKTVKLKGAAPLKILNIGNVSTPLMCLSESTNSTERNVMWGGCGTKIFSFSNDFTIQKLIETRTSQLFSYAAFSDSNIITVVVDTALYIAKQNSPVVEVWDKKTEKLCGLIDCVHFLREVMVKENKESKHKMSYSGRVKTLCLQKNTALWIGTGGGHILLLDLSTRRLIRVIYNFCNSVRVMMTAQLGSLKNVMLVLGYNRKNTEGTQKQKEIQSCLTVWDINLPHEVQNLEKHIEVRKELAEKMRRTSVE

Structure (SMILES)	IC50
CCCNc1nc(Nc2ccc(P3(=O)CCN(C(C)=O)CC3)cc2OC)nc2[nH]cc(Cl)c12 [Compound 100, 1-(4-(4-((5-chloro-4-(propylamino)-7H-pyrrolo[2,3-d]pyrimidin-2-yl)amino)-3-methoxyphenyl)-4-oxido-1,4-azaphosphinan-1-yl)ethan-1-one]	10 to 100 nM
CC(C)Nc1nc(Nc2ccc(C(=O)N3CCC(N4CCOCC4)CC3)c3c2OCCO3)nc2[nH]cc(Cl)c12 [Compound 88]	10 to 100 nM
COc1cc(S(=O)(=O)N2CCOCC2)ccc1Nc1nc(NCC(C)C)c2c(Cl)c[nH]c2n1 [Compound 31, 5-chloro-N4-isobutyl-N2-(2-methoxy-4-(morpholinosulfonyl)phenyl)-7H-pyrrolo[2,3-d]pyrimidine-2,4-diamine]	100 to 1000 nM
O=C(c1ccc(Nc2nc(NCC3CC3)c3c(Cl)c[nH]c3n2)c2c1OCCO2)N1CCOCC1 [Compound 65, (8-((5-chloro-4-((cyclopropylmethyl)amino)-7H-pyrrolo[2,3-d]pyrimidin-2-yl)amino)-2,3-dihydrobenzo[b][1,4]dioxin-5-yl)(morpholino)methanone]	< 10 nM
O=C(c1ccc(Nc2nc(NC3CCC3)c3c(Cl)c[nH]c3n2)c2c1CCO2)N1CCC(N2CCOCC2)CC1 [Compound 103, (7-((5-chloro-4-(cyclobutylamino)-7H-pyrrolo[2,3-d]pyrimidin-2-yl)amino)-2,3-dihydrobenzofuran-4-yl)(4-morpholinopiperidin-1-yl)methanone]	10 to 100 nM
COc1cc(S(C)(=O)=O)ccc1Nc1nc(N[C@H]2CCOC2)c2c(Cl)c[nH]c2n1 [Compound 94, (S)-5-chloro-N2-(2-methoxy-4-(methylsulfonyl)phenyl)-N4-(tetrahydrofuran-3-yl)-7H-pyrrolo[2,3-d]pyrimidine-2,4-diamine]	< 10 nM
CCNc1nc(Nc2ccc(S(=O)(=O)N3CCC(N4CCOCC4)CC3)cc2OC)nc2[nH]cc(Cl)c12 [Compound 15, 5-chloro-N4-ethyl-N2-(2-methoxy-4-((4-morpholinopiperidin-1-yl)sulfonyl)phenyl)-7H-pyrrolo[2,3-d]pyrimidine-2,4-diamine]	< 10 nM
COc1cc(P2(=O)CCN(C3CC3)CC2)ccc1Nc1nc(NC2CCC2)c2c(Cl)c[nH]c2n1 [Compound 104, 4-(4-((5-chloro-4-(cyclobutylamino)-7H-pyrrolo[2,3-d]pyrimidin-2-yl)amino)-3-methoxyphenyl)-1-cyclopropyl-1,4-azaphosphinane 4-oxide]	10 to 100 nM
O=C(c1ccc(Nc2nc(NC3CCC3)c3c(Cl)c[nH]c3n2)c2c1OCCO2)N1CCOCC1 [Compound 30, (8-((5-chloro-4-(cyclobutylamino)-7H-pyrrolo[2,3-d]pyrimidin-2-yl)amino)-2,3-dihydrobenzo[b][1,4]dioxin-5-yl)(morpholino)methanone]	< 10 nM
COCCNc1nc(Nc2ccc(S(=O)(=O)N3CCOCC3)cc2OC)nc2[nH]cc(Cl)c12 [Compound 21, 5-chloro-N2-(2-methoxy-4-(morpholinosulfonyl)phenyl)-N4-(2-methoxyethyl)-7H-pyrrolo[2,3-d]pyrimidine-2,4-diamine]	< 10 nM
CCNc1nc(Nc2ccc(S(=O)(=O)N3CCOCC3)cc2OC)nc2[nH]cc(Cl)c12 [Compound 6, 5-chloro-N4-ethyl-N2-(2-methoxy-4-(morpholinosulfonyl)phenyl)-7H-pyrrolo[2,3-d]pyrimidine-2,4-diamine]	> 1000 nM
COc1cc(S(=O)(=O)N2CCOCC2)ccc1Nc1nc(NC2CCOCC2)c2c(Cl)c[nH]c2n1 [Compound 62, 5-chloro-N2-(2-methoxy-4-(morpholinosulfonyl)phenyl)-N4-(tetrahydro-2H-pyran-4-yl)-7H-pyrrolo[2,3-d]pyrimidine-2,4-diamine]	< 10 nM
COc1cc(S(=O)(=O)N2CCC(N3CCOCC3)CC2)ccc1Nc1nc(NC2CCCC2)c2c(Cl)c[nH]c2n1 [Compound 56, 5-chloro-N4-cyclopentyl-N2-(2-methoxy-4-((4-morpholinopiperidin-1-yl)sulfonyl)phenyl)-7H-pyrrolo[2,3-d]pyrimidine-2,4-diamine]	10 to 100 nM
COc1cc(P2(=O)CCN(C3CC3)CC2)ccc1Nc1nc(NC2CCCCC2)c2c(Cl)c[nH]c2n1 [Compound 93, 4-(4-((5-chloro-4-(cyclohexylamino)-7H-pyrrolo[2,3-d]pyrimidin-2-yl)amino)-3-methoxyphenyl)-1-cyclopropyl-1,4-azaphosphinane 4-oxide]	100 to 1000 nM
COc1cc(P2(=O)CCN(C3CC3)CC2)ccc1Nc1nc(NC2CC2)c2c(Cl)c[nH]c2n1 [Compound 90, 4-(4-((5-chloro-4-(cyclopropylamino)-7H-pyrrolo[2,3-d]pyrimidin-2-yl)amino)-3-methoxyphenyl)-1-cyclopropyl-1,4-azaphosphinane 4-oxide]	10 to 100 nM
CCNc1nc(Nc2ccc(C(=O)N3CCOCC3)c3c2OCC3)nc2[nH]cc(Cl)c12 [Compound 101, (7-((5-chloro-4-(ethylamino)-7H-pyrrolo[2,3-d]pyrimidin-2-yl)amino)-2,3-dihydrobenzofuran-4-yl)(morpholino)methanone]	< 10 nM

Structure (SMILES)	IC50
O=C(c1ccc(Nc2nc(NC3CC3)c3c(Cl)c[nH]c3n2)c2c1OCCO2)N1CCOCC1 [Compound 27, (8-((5-chloro-4-(cyclopropylamino)-7H-pyrrolo[2,3-d]pyrimidin-2-yl)amino)-2,3-dihydrobenzo[b][1,4]dioxin-5-yl)(morpholino)methanone]	< 10 nM
COc1cc(S(=O)(=O)N2CCOCC2)ccc1Nc1nc(NCCS(C)(=O)=O)c2c(Cl)c[nH]c2n1 [Compound 68, 5-chloro-N2-(2-methoxy-4-(morpholinosulfonyl)phenyl)-N4-(2-(methylsulfonyl)ethyl)-7H-pyrrolo[2,3-d]pyrimidine-2,4-diamine]	10 to 100 nM
CNc1nc(Nc2ccc(C(=O)N3CCC(N4CCOCC4)CC3)c3c2OCCO3)nc2[nH]cc(Cl)c12 [Compound 10, (8-((5-chloro-4-(methylamino)-7H-pyrrolo[2,3-d]pyrimidin-2-yl)amino)-2,3-dihydrobenzo[b][1,4]dioxin-5-yl)(4-morpholinopiperidin-1-yl)methanone]	< 10 nM
COc1cc(S(=O)(=O)N2CCC(N3CCOCC3)CC2)ccc1Nc1nc(NC2CC2)c2c(Cl)c[nH]c2n1 [Compound 25, 5-chloro-N4-cyclopropyl-N2-(2-methoxy-4-((4-morpholinopiperidin-1-yl)sulfonyl)phenyl)-7H-pyrrolo[2,3-d]pyrimidine-2,4-diamine]	< 10 nM
CC[C@@H](C)Nc1nc(Nc2ccc(C(=O)N3CCOCC3)c3c2OCCO3)nc2[nH]cc(Cl)c12 [Compound 50, (R)-(8-((4-(sec-butylamino)-5-chloro-7H-pyrrolo[2,3-d]pyrimidin-2-yl)amino)-2,3-dihydrobenzo[b][1,4]dioxin-5-yl)(morpholino)methanone]	< 10 nM
O=C(c1ccc(Nc2nc(N[C@H]3CCOC3)c3c(Cl)c[nH]c3n2)c2c1OCCO2)N1CCOCC1 [Compound 95]	< 10 nM
COc1cc(S(=O)(=O)N2CCC(N3CCOCC3)CC2)ccc1Nc1nc(NCC2CCCC2)c2c(Cl)c[nH]c2n1 [Compound 67, 5-chloro-N4-(cyclopentylmethyl)-N2-(2-methoxy-4-((4-morpholinopiperidin-1-yl)sulfonyl)phenyl)-7H-pyrrolo[2,3-d]pyrimidine-2,4-diamine]	100 to 1000 nM
CNc1nc(Nc2ccc(C(=O)N3CCOCC3)c3c2OCCO3)nc2[nH]cc(Cl)c12 [Compound 14, (8-((5-chloro-4-(methylamino)-7H-pyrrolo[2,3-d]pyrimidin-2-yl)amino)-2,3-dihydrobenzo[b][1,4]dioxin-5-yl)(morpholino)methanone]	< 10 nM
CCC(C)Nc1nc(Nc2ccc(S(=O)(=O)N3CCC(N4CCOCC4)CC3)cc2OC)nc2[nH]cc(Cl)c12 (stereo in doubt) [Compound 52, (S)—N4-(sec-butyl)-5-chloro-N2-(2-methoxy-4-((4-morpholinopiperidin-1-yl)sulfonyl)phenyl)-7H-pyrrolo[2,3-d]pyrimidine-2,4-diamine]	10 to 100 nM
COc1cc(P2(=O)CCN(C3CC3)CC2)ccc1Nc1nc(NCC(C)C)c2c(Cl)c[nH]c2n1 [Compound 96, 4-(4-((5-chloro-4-(isobutylamino)-7H-pyrrolo[2,3-d]pyrimidin-2-yl)amino)-3-methoxyphenyl)-1-cyclopropyl-1,4-azaphosphinane 4-oxide]	100 to 1000 nM
CCC(C)Nc1nc(Nc2ccc(S(C)(=O)=O)cc2OC)nc2[nH]cc(Cl)c12 (stereo in doubt) [Compound 53, (S)—N4-(sec-butyl)-5-chloro-N2-(2-methoxy-4-(methylsulfonyl)phenyl)-7H-pyrrolo[2,3-d]pyrimidine-2,4-diamine]	100 to 1000 nM
CCNc1nc(Nc2ccc(P3(=O)CCN(C4CC4)CC3)cc2OC)nc2[nH]cc(Cl)c12 [Compound 84, 4-(4-((5-chloro-4-(ethylamino)-7H-pyrrolo[2,3-d]pyrimidin-2-yl)amino)-3-methoxyphenyl)-1-cyclopropyl-1,4-azaphosphinane 4-oxide]	10 to 100 nM
CNc1nc(Nc2ccc(P3(=O)CCN(C(C)=O)CC3)cc2OC)nc2[nH]cc(Cl)c12 [Compound 82, 1-(4-(4-((5-chloro-4-(methylamino)-7H-pyrrolo[2,3-d]pyrimidin-2-yl)amino)-3-methoxyphenyl)-4-oxido-1,4-azaphosphinan-1-yl)ethan-1-one]	< 10 nM
O=C(c1ccc(Nc2nc(NC3CC3)c3c(Cl)c[nH]c3n2)c2c1OCCO2)N1CCC(N2CCOCC2)CC1 [Compound 3, (8-((5-chloro-4-(cyclopropylamino)-7H-pyrrolo[2,3-d]pyrimidin-2-yl)amino)-2,3-dihydrobenzo[b][1,4]dioxin-5-yl)(4-morpholinopiperidin-1-yl)methanone]	< 10 nM
COc1cc(S(=O)(=O)N2CCC(N3CCOCC3)CC2)ccc1Nc1nc(N[C@H]2CCOC2)c2c(Cl)c[nH]c2n1 [Compound 61, (S)-5-chloro-N2-(2-methoxy-4-((4-morpholinopiperidin-1-yl)sulfonyl)phenyl)-N4-(tetrahydrofuran-3-yl)-7H-pyrrolo[2,3-d]pyrimidine-2,4-diamine]	< 10 nM
